Reference: US20060276542A1, “Methods for treating functional bowel disorders using alpha2 subunit calcium channel modulators with smooth muscle modulators” (priority 2003, published 2006)

How the values were obtained:
beta-adrenergic = settings: cited from earlier work
[1] = preclinical and clinical studies, cited from earlier work
[2] = test system: reduction in bladder capacity following continuous infusion of dilute acetic acid; test: Dilute acetic acid irritative model, bladder capacity by cystometry; type: in vivo, rat; settings: isobologram, drug alone; for common maximal effect, return to % of saline control bladder capacity: group mean data; for common maximal effect (target value), return to % of saline control bladder capacity: individual responses
Procedure: Urethane anesthetized (1.2 g/kg) normal female rats were utilized in this study.
Animals were dosed by volume of injection=body weight in kg.
Animal Preparation: Female rats (250-300 g body weight) were anesthetized with urethane (1.2 g/kg) and a saline-filled catheter (PE-50) was inserted into the jugular vein for intravenous drug administration. […] The abdominal cavity was moistened with saline and closed by covering with a thin plastic sheet in order to maintain access to the bladder for emptying purposes. Fine silver or stainless steel wire electrodes were inserted into the external urethral sphincter (EUS) percutaneously for electromyography (EMG).
Following 30 minutes of AA infusion, 3 vehicle injections were made at 20 minute intervals to determine vehicle effects, if any.
P<0.050 was considered significant.

| Structure (SMILES) | potency of L-enantiomer relative to D-enantiomer (beta-adrenergic) [times] | blood levels of gabapentin across a broad range of oral doses ([1]; oral) | absorption from the large intestine [1] | common maximal effect, return to % of saline control bladder capacity [2] | common maximal effect (target value), return to % of saline control bladder capacity [2] |
| --- | --- | --- | --- | --- | --- |
| CC(C)NC[C@H](O)COc1cccc2ccccc12 [L-enantiomer of propranolol, propranolol] | 100 | – | – | – | – |
| CC(OC(=O)NCC1(CC(=O)O)CCCCC1)OC(=O)C(C)C (stereo not shown) [XP13512] | – | dose proportional blood levels of gabapentin | absorbed efficiently from the large intestine | – | – |
| NCC1(CC(=O)O)CCCCC1 [gabapentin, 1-(aminomethyl)cyclohexaneacetic acid] | – | – | – | 43 % of saline control | 31 % of saline control |
| CCN(CC)CC#CCOC(=O)C(O)(c1ccccc1)C1CCCCC1 (stereo not shown) [oxybutynin, 4-diethylaminio-2-butynyl phenylcyclohexyglycolate] | – | – | – | 43 % of saline control | 31 % of saline control |
